Entries after “also recorded” stand apart in the source; their conditions may differ. Read-outs that look alike come from different tables or passages of the source. Where a SMILES comes first, the peptide text is derived from it. The star is where a group is joined. Cbz = O=C(OCc1ccccc1)*
How the values were obtained:
HCT116 clone #10 [1] = assay: Cell death assay with chemodrug in the presence of caspase inhibitors; format: cell-based, human; conditions: clone #10 treated with 5-FU (500 μM) or Adriamycin (4 μg/ml) 24 h; inhibitors 50 μM each
Description: (§1) FIG. 9. BaxΔ2 promotes apoptosis through activation of caspase-8. A, Cell death assay of HCT116 clone #10 and clone #28 cells treated with or without 5-FU (500 μM) or Adriamycin (Adr, 4 μg/ml) for 24 h in the presence of inhibitors (50 μM each) for caspase-3 (DEVD) SEQ ID NO: 4), caspase-8 (IETD) (SEQ ID NO: 5), caspase-1 (YVAD) (SEQ ID NO: 6), and caspase-9 (LEHD) (SEQ ID NO: 7) as indicated. ** P<0.01. inh., inhibitor. B, Caspase-3 assay of HCT116 clone #10 and #28 cells treated as described in (A). The activity of caspase-3 was measured using fluorogenic caspase-3 substrate DEVD-AFC (SEQ ID NO: 4) (50 μM) with a microplate spectrofluorometer. C, Immunoblotting analysis for the detection of cleaved casapase-8 in the chemodrug treated clone #10 and #28 cells with an anti-cleaved caspase-8 antibody.
(§2) Bax typically targets the mitochondria upon activation and results in the activation of the caspase-9 and caspase-3 cascade for cell death. To determine the underlying mechanism by which BaxΔ2 promoted cell death, HCT116 clones #10 and #28 were treated with Adriamycin or 5-FU in the presence of different caspase inhibitors. […] The caspase-3 activity was confirmed by the caspase-3 fluorometric assay (FIG. 9B). […]

BaxΔ2 protein [2] = assay: Immunoblotting of BaxΔ2 protein after MG-132 treatment, clone #10; format: cell-based, human; conditions: clone #10 (HCT116-BP10); MG-132 10 μM for 8 h
Description: (§3) FIG. 7. Generation and characterization of the isogenic subline cells with the different Bax microsatellite status. A, Schematic diagram of generating the HCT116 sublines. Cells were treated with 500 μM Indomethacin for 72 h. A single cell suspension was plated into 96-well plates without Indomethacin. Bax microsatellite statuses (G8/G8, G8/G7, or G7/G7) of each sublines were determined by genomic sequencing as described in the methods. B, RT-PCR analysis of Bax alternative splicing and BaxΔ2 production. The cDNAs were generated from HCT116 clones #10 (G7/G7 genotype) and clone #28 (G8/G7 genotype) with a set of primers that cover Bax exon 1 through exon 6, or primers specific for BaxΔ2 as described in the methods. The PCR products of Baxα and BaxΔ2 plasmid DNA were used as controls. […] Total 1×10^4 cells were seeded onto 24-well plates and the cell numbers were counted every 24 h up to 96 h. […]
(§4) We then determined the expression of endogenous BaxΔ2 proteins in the HCT116 clones #10 and #28 subline cells using a specific anti-BaxΔ2 antibody. […] Of note, both clone #10 and clone #28 had no detectable parental Baxα proteins, as analyzed by immunoblotting using several anti-Baxα antibodies (FIG. 7C and data not shown).

BaxΔ2 protein [3] = assay: Immunoblotting of BaxΔ2 protein after MG-132 treatment, clone #28; format: cell-based, human; conditions: clone #28 (HCT116-BN28); MG-132 10 μM for 8 h
Description: as §3, §4

[4] = test system: colon cancer LoVo cells (G7/G9); conditions: previously shown; cited from earlier work
Bid = assay: Immunoblotting analysis of cleaved Bid in clone #10; format: cell-based, human; conditions: BaxΔ2-positive clone #10 cells
Description: (§5) FIG. 10. The Bid-dependent mitochondrial death pathway is not essential for the onset of chemodrug-induced apoptosis in BaxΔ2-positive cells. A, Immunoblotting analysis of cleaved Bid in HCT116 clone #10 and #28 cells treated with or without 5-FU (500 μM) or Adriamycin ([…]) as indicated. The intensities of truncated Bid bands were quantitated relevant to the actin control and are presented as arbitrary numbers. B, Cell death assay of HCT116 clone #10 cells treated with 5-FU (500 μM) in the presence of a Bid specific inhibitor (BI-6C9; 10 μM) or Bid siRNA. C, Cell death assay of clone #10 cells treated with 5-FU (500 μM) in the presence of a caspase-9 inhibitor (LEHD (SEQ ID NO: 7); 50 μM) or transfected with a caspase-9 dominant negative (D/N) mutant construct. D, Representative images of JC-1 staining. Carbonyl cyanide 4-(trifluoromethoxy) phenylhydrazone (FCCP; 100 μM) was used as a positive control. JC-1 monomer green fluorescence as observed by excitation with 488 nm and emission with 529 nm (top panel). JC-1 aggregate red fluorescence as observed by excitation at 546 nm and emission at 590 nm (bottom panel).
(§6) Caspase-8 is one of the initiator caspases in the extrinsic death receptor pathway. […] We next determined if the Bid-dependent mitochondrial death pathway was required for BaxΔ2 to promote apoptosis. […]

[5] = test system: HCT116-BP10 (BaxΔ2 positive) versus HCT116-BN28 (BaxΔ2 negative) sublines; assay: Cell death assay of HCT116 sublines treated with chemotherapeutic drugs for 36 hours; format: cell-based, human; conditions: Adriamycin (40 ug/ml) or 5-FU (500 ug/ml), compared with BaxΔ2 negative subline
Description: FIG. 8. […] Adr, Adriamycin; Etop, Etoposide; 5-FU, 5-fluorouracil; Contr, control.
BaxΔ2 positive (HCT116-BP10) and negative (HCT116-BN28) sublines were treated with Adriamycin (40 ug/ml) or 5-FU (500 ug/ml) for 36 hours in a regular cell culture medium. […] Both Adriamycin and Etoposide are in the same category as topoisomerase inhibitors; and both 5-FU and Cytoxan are in the same class of alkaloid drugs.

caspase-8 = assay: Immunoblotting for cleaved caspase-8 in chemodrug treated clone #10; format: cell-based, human; conditions: 5-FU (500 μM) or Adriamycin (4 μg/ml) 24 h
Description: as §1, §2

[6] = test system: prostate cancer 104-R cells (G7/G7); conditions: previously shown; cited from earlier work
[7] = test system: HCT116 isogenic subline clone #10 (BaxΔ2-positive); format: cell-based, human; conditions: Table 5 screening
Description: Colon cancer cell line HCT116 was obtained from American Type Culture Collection. The cell line was tested and authenticated by Genetica (Cincinnati. Ohio) before the experiments. Both HCT116 and Bax^−/− mouse embryonic fibroblasts (MEFs) cells were cultured in DMEM supplemented with 10% FBS. To isolate single cell population from HCT116 cells, cells were treated with 500 μM Indomethacin for 72 h to enrich Bax G7 population. Single-cell suspension was plated onto 96-well plates without Indomethacin. Single clones were recovered, expanded, and validated by both genomic sequencing and RT-PCR analysis.
However, the heterogeneity of different cell lines often adds complexity to data interpretation. […] For the initial screening, we selected a panel of different classes of commonly used chemotherapeutic drugs.

HCT116 clone #10 [8] = assay: Cell death assay of clone #10 treated with 5-FU with Bid or caspase-9 inhibition; format: cell-based, human; conditions: clone #10 treated with 5-FU (500 μM); BI-6C9 10 μM; LEHD 50 μM
Description: as §5, with “(bottom panel). […]” for “(bottom panel).”
as §6

Row | Compound | Inhibition of chemodrug-induced apoptosis (HCT116 clone #10 [1]) | Bid degradation (cleaved Bid) (Bid) | Sensitivity of BaxΔ2 positive clone #10 cells to treatment (cell death assay) [5] | Caspase-8 activation (cleaved caspase-8 fragments 43 kDa and 18 kDa) (caspase-8) | other results
1 | Z-DEVD-FMK (N-Z, C-terminal fluoromethylketone) [caspase-3 inhibitor] | effectively inhibited | – | – | – | –
2 | CC(C)C[C@@H](C=O)NC(=O)[C@H](CC(C)C)NC(=O)[C@H](CC(C)C)NC(=O)OCc1ccccc1 [MG-132] (Cbz-Leu-Leu-Leu-aldehyde) | – | – | – | – | Detection of BaxΔ2 proteins after treatment (BaxΔ2 protein [2]): easily detected; Detection of BaxΔ2 proteins after treatment (BaxΔ2 protein [3]): no detectable BaxΔ2 proteins
3 | COc1cccc2c1C(=O)c1c(O)c3c(c(O)c1C2=O)C[C@@](O)(C(=O)CO)C[C@@H]3O[C@H]1C[C@H](N)[C@H](O)[C@H](C)O1 [Doxorubicin, doxorubicin] | – | partially degraded | more sensitive | activated | Sensitivity to treatment compared with cancer cells with wild type Bax [4]: more sensitive; Sensitivity to treatment compared with cancer cells with wild type Bax [6]: more sensitive; Sensitivity of BaxΔ2-positive clone #10 compared with BaxΔ2-negative clone #28 ([7]; listed as Adriamycin): more sensitive; also recorded: selectively sensitive
4 | Z-IETD-FMK (N-Z, C-terminal fluoromethylketone) [caspase-8 inhibitor] | effectively inhibited | – | – | – | –
5 | Bid siRNA: Bid siRNA (5′GGGCAAAAGC UUACAAAUAUU3′) (SEQ ID NO: 47) (GGGCAAAAGCUUACAAAUAUU; listed as RNA, chemistry not given here) | – | – | – | – | Effect on chemodrug-induced apoptosis (HCT116 clone #10 [8]): did not significantly affect
6 | O=c1[nH]cc(F)c(=O)[nH]1 [5-FU, 5-Fluorouracil] | – | partially degraded | more sensitive | activated | Sensitivity of BaxΔ2-positive clone #10 compared with BaxΔ2-negative clone #28 [7]: highly sensitive; also recorded: selectively sensitive

— US9504687B2, “Treating Bax(Δ)2-positive cancer with chemotherapies targeting caspase 8” (Mumetel, LLC, priority 2013, dated 2016)
